From patent publication US6858642B1, “Indole derivatives” (Neurim Pharmaceuticals (1991) Ltd., priority 1999, dated 2005)
Like-named read-outs stand apart in the source and are kept apart here.

How the values were obtained:
[1] = Scavenging activity on DPPH radicals (antioxidant effect); conditions: 10 μM addition; decrease in A517 of DPPH after 20 min at room temperature
Protocol: Radical scavenging activity was assayed in duplicates according to Blois, M. S., Nature, 1958, 181:1199. The reaction mixture contained 3 ml of 01 mM DPPH (in 95% ethanol) and 0.5 ml of the test compound. After 20 min. incubation at room temperature A517 was determined. The scavenging activity was measured as the decrease in A517 of the DPPH radical expressed as a percentage of the control value.

[2] = tested on: adult castrated male rats; experiment: Androgen-dependent regrowth of ventral prostate and seminal vesicles in castrated rats, compounds given orally in drinking water; type: in vivo, rat; conditions: for Relative potency on testosterone-mediated prostate re-growth: comparison among compounds; for Dose dependence of the effect on prostate re-growth: 0.01 to 10 mg/l drinking water; for IC50: Rattus norvegicus, feed or water, read-out: IC50 on prostate re-growth
Source text: The effects of orally administered compounds of the invention, MLP-76,77, 79 and 92, on androgen-dependent prostatal regrowth in adult castrated male rats was investigated Male rats (2.5 months old) were castrated under anesthesia and left to recover for 7 days. During this period, the average weight of the prostate decreased by approximately 75%. Beginning on day 7 after castration, the rats were given daily subcutaneous injections of either oil vehicle (control) or oil vehicle containing testosterone propionate (1 mg/kg body weight per day) for 4 days at 1 hour before lights off. […] In the morning following the last inject ion, the rats were sacrificed and the seminal vesicles and ventral prostates were removed and weighed.

[3] = Distribution of 125I-labelled compounds in organs of the adult male rat 1 h after ip injection; type: in vivo; conditions: retention pattern 1 h after ip injection
Protocol: The distribution of MLP-92 and MLP-77 in various organs of the rat was examined. 100 mcl saline containing 1×10^6 dpm ^125l-labelled compounds of the invention (labelling as described by Vakkuri et al., Acta Endocrinol., 106, 152-7, 1984) were injected (ip) to adult male rats. The rats were sacrificed 1 h after injection and various organs were dissected out and weighted. The contents of the radioactive derivatives in the rat organs (Brain, Hypothalamus, Pituitary, Eyes, Thyroid, Heart, Lungs, Kidneys. Spleen, Testis, Prostate and seminal vesicle) were determined using a gamma-counter and the results are presented as dpm/g organ wet-weight.

[4] = Table 2, 10 mg/l drinking water
[5] = Table 2, testosterone + compound 10 mg/l drinking water, 4 days
[6] = Table 3, 0.01 mg/l drinking water
[7] = Table 3, 0.1 mg/l drinking water
[8] = Table 3, testosterone + compound 0.01 mg/l drinking water
[9] = Table 3, testosterone + compound 0.1 mg/l drinking water
[10] = Table 2, testosterone propionate 1 mg/kg per day sc alone, 4 days
[11] = Table 3 (second group), testosterone propionate 1 mg/kg per day sc alone

| Compound | Relative ratio of scavenging activity compared with Vitamin E (tocopherol) [1] | A = % inhibition of testosterone-stimulated growth (prostate) [2, 4] | B = % inhibition of testosterone-stimulated growth (seminal vesicles) [2, 4] | Prostate (mg/g body weight) [2, 5] | Seminal Vesicles (mg/g body weight) [2, 5] | Accumulation in the prostate [3] | other results |
| --- | --- | --- | --- | --- | --- | --- | --- |
| O=C(O)C=Cc1ccc(O)c(O)c1 [Caffeic acid, 3,4-Dihydroxycinnamic acid] | 2.8 | – | – | – | – | – | – |
| COc1ccc2[nH]cc(CCNC(=O)c3ccco3)c2c1 [MLP-76, 5-Methoxy-3-(2-(2-furamido)ethyl)indole] | – | 66% | 44% | 0.49 ± 0.09 mg/g body weight | 1.82 ± 0.25 mg/g body weight | – | Relative potency on testosterone-mediated prostate re-growth ([2]; Table 2): more potent then MLP-79, MLP-77 and melatonin |
| COc1ccc2[nH]cc(CCNC(=O)c3ccccc3OC(C)=O)c2c1 [MLP-77] | – | 40% | −18% | 0.57 ± 0.05 mg/g body weight | 2.69 ± 0.49 mg/g body weight | selective accumulation | – |
| COc1ccc2[nH]cc(CCNC(=O)C3CCCO3)c2c1 (stereo not drawn) [MLP-79, 5-Methoxy-3-(2-(tetrahydro-2-furamido)ethyl)indole] | – | 54% | 23% | 0.50 ± 0.04 mg/g body weight | 2.00 ± 0.39 mg/g body weight | selective accumulation | – |
| COc1ccc2[nH]cc(CCNCC3CCCO3)c2c1 (stereo not drawn) [MLP-92, 5-Methoxy-3-(2-(tetrahydro2-furylmethylamino)ethyl)indole] | – | 66% | 51% | 0.49 ± 0.04 mg/g body weight | 1.54 ± 0.21 mg/g body weight | selective accumulation | Dose dependence of the effect on prostate re-growth [2]: dose-dependent; IC50 [2]: 88 nM; A = % inhibition of testosterone-stimulated growth (prostate) [2, 6]: 19%; B = % inhibition of testosterone-stimulated growth (seminal vesicles) [2, 6]: 28%; A = % inhibition of testosterone-stimulated growth (prostate) [2, 7]: 62%; B = % inhibition of testosterone-stimulated growth (seminal vesicles) [2, 7]: 37%; Prostate (mg/g body weight) [2, 8]: 0.57 ± 0.04 mg/g body weight; Seminal Vesicles (mg/g body weight) [2, 8]: 1.57 ± 0.25 mg/g body weight; Prostate (mg/g body weight) [2, 9]: 0.46 ± 0.1 mg/g body weight; Seminal Vesicles (mg/g body weight) [2, 9]: 1.45 ± 0.13 mg/g body weight; Relative potency on testosterone-mediated prostate re-growth ([2]; Table 2): more potent then MLP-79, MLP-77 and melatonin |
| COc1ccc2[nH]cc(CCNC(C)=O)c2c1 [Melatonin, reference compound] | – | 44% | 30% | 0.55 ± 0.08 mg/g body weight | 1.88 ± 0.03 mg/g body weight | – | Dose dependence of the effect on prostate re-growth [2]: dose-dependent; IC50 ([2]; dose-dependent effect, compound in drinking water): 230 nM; A = % inhibition of testosterone-stimulated growth (prostate) [2, 6]: −15%; B = % inhibition of testosterone-stimulated growth (seminal vesicles) [2, 6]: 10%; A = % inhibition of testosterone-stimulated growth (prostate) [2, 7]: 31%; B = % inhibition of testosterone-stimulated growth (seminal vesicles) [2, 7]: 30%; Prostate (mg/g body weight) [2, 8]: 0.66 ± 0.08 mg/g body weight; Seminal Vesicles (mg/g body weight) [2, 8]: 1.81 ± 0.28 mg/g body weight; Prostate (mg/g body weight) [2, 9]: 0.54 ± 0.09 mg/g body weight; Seminal Vesicles (mg/g body weight) [2, 9]: 1.55 ± 0.24 mg/g body weight; Effect on testosterone-mediated re-growth of the ventral prostate gland ([2]; in the presence of testosterone (Table 2)): decreased significantly |
| CCC(=O)O[C@H]1CC[C@H]2[C@@H]3CCC4=CC(=O)CC[C@]4(C)[C@H]3CC[C@]12C [Testosterone, testosterone propionate, reference compound] | – | – | – | – | – | – | Prostate (mg/g body weight) [2, 10]: 0.77 ± 0.02 mg/g body weight; Seminal Vesicles (mg/g body weight) [2, 10]: 2.38 ± 0.16 mg/g body weight; Prostate (mg/g body weight) [2, 11]: 0.62 ± 0.1 mg/g body weight; Seminal Vesicles (mg/g body weight) [2, 11]: 1.95 ± 0.24 mg/g body weight |
| O=C1O[C@H]([C@@H](O)CO)C(O)=C1O [Vitamin C (ascorbic acid), ascorbic acid] | 1 | – | – | – | – | – | – |
| COc1ccc2[nH]cc(CCNC(=O)/C=C/c3ccc(O)c(O)c3)c2c1 [caffeic acid 5-methoxytryptamide, Caffeic Acid 5-Methoxytryptamide] | 3.2 | – | – | – | – | – | – |
| tocopherol [Vitamin E (tocopherol)] | 1 | – | – | – | – | – | – |
